IC50 data for 17 compounds are collected here from US11648254B2 (Kumquat Biosciences Inc., priority 2021, dated 2023).

For test [1], the system named is NCI-H1975 cells (EGFR T790M L858R). Briefly: EGFR-SOS cellular inhibition assay (CellTiter-Glo, 3D). In kind it is cell-based. Conditions: Homo sapiens. (In ATP-based viability assays light output follows the ATP content of the culture.)
For test [2], the target named is SOS1 (Homo sapiens (Human), UniProt Q07889). Briefly: Ras-SOS interaction assay (HTRF). It is filed as biochemical.
SOS1, sequence (Q07889 564-1049): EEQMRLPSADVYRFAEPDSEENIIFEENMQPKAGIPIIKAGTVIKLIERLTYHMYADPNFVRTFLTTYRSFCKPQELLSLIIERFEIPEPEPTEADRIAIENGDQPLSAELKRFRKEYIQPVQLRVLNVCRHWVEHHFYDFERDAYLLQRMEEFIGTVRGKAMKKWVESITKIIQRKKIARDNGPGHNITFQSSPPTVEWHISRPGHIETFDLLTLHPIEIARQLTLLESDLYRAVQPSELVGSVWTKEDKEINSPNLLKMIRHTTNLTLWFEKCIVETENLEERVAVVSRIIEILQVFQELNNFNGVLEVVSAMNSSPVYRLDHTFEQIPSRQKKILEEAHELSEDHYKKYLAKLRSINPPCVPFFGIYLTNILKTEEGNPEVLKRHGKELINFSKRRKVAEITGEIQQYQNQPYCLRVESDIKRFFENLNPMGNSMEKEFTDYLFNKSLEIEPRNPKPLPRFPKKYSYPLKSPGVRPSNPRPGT
The subject of test [3] is MIA PaCa-2 cells (K-Ras G12C). Briefly: Ras-SOS cellular growth inhibition assay (CellTiter-Glo, 3D). The note with it: Homo sapiens. In kind it is cell-based. The method, boiled down:
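Growth read by CellTiter-Glo luminescence about 5 days after dosing with 3-fold dilutions (9 points), added one day post-seeding. Cells: MIA PaCa-2, 3D culture on ultra-low-attachment surface, medium DMEM/Ham's F12 plus 10% FCS and 2.5% horse serum; IC50 by four-parameter fit.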

The mark [4] stands for this setting: 120 h, NCI-H1975, 3D proliferation, about 5 days, read-out: Bio-Cell-Prolif-3D (H1975 IC50).
Where [5] appears, read: NCI-H1975, EGFR T790M L858R, read-out: IC50 in inhibiting growth of NCI-H1975 cell line.
Where [6] appears, read: K-RasG13D utilized, read-out: IC50 inhibition of SOS.
[7] abbreviates: K-RasG13D, read-out: IC50 value against SOS1.
[8] abbreviates: MIA PaCa-2, 120 h, MIA PaCa-2, 3D proliferation, about 5 days, read-out: Bio-Cell-Prolif-3D (MiaPaca2 IC50).
Where [9] appears, read: MIA PaCa-2, MIA PaCa-2, read-out: IC50 in inhibiting MIA PaCa-2 cell growth.

Where two headings read alike, the source gives them in different places.

As usually defined, the IC50 is the point on the concentration scale where inhibition reaches its midpoint.

Take `COc1nc2nc(C)nc(N[C@H](C)c3cccc(C(F)(F)CCC4CN(C)C4)c3F)c2cc1C1CCS(=O)(=O)CC1` [Compound 180, (R)-4-(4-((1-(3-(1,1-difluoro-3-(1-methylazetidin-3-yl)propyl)-2-fluorophenyl)ethyl)amino)-7-methoxy-2-methylpyrido[2,3-d]pyrimidin-6-yl)tetrahydro-2H-thiopyran 1,1-dioxide]: the concentration for half-maximal inhibition (IC50) was at most 1000 nM in test [1] (setting [4]); under 500 nM in test [1] (setting [5]); under 100 nM in test [2] (setting [6]); under 50 nM in test [2] (setting [7]); at most 1000 nM in test [3] (setting [8]); under 500 nM in test [3] (setting [9]).
As to `CCN1CCN(c2cc3c(N[C@H](C)c4cccc(C(F)F)c4F)nc(C)nc3nc2NC2COC2)CC1` [Compound 188, (R)-N4-(1-(3-(difluoromethyl)-2-fluorophenyl)ethyl)-6-(4-ethylpiperazin-1-yl)-2-methyl-N7-(oxetan-3-yl)pyrido[2,3-d] pyrimidine-4,7-diamine], the IC50 in test [1] (setting [4]) is at most 1000 nM; in test [1] (setting [5]), under 500 nM; in test [2] (setting [6]), under 100 nM; in test [2] (setting [7]), under 50 nM; in test [3] (setting [8]) it was 1000 to 10000 nM.
In the same order, the values of `COc1nc2nc(C)nc(N[C@H](C)c3cccc(C(F)F)c3F)c2cc1N1CCN(C2CCOCC2)CC1` [Compound 338, (R)-N-(1-(3-(difluoromethyl)-2-fluorophenyl)ethyl)-7-methoxy-2-methyl-6-(4-(tetrahydro-2H-pyran-4-yl)piperazin-1-yl)pyrido[2,3-d]pyrimidin-4-amine] are at most 1000 nM, under 500 nM, under 100 nM, under 50 nM and at most 1000 nM.
In the case of `COc1nc2ncnc(N[C@H](C)c3cccc(C(F)(F)C4CCN(C(C)C)CC4)c3F)c2cc1C1CCN(C(C)C)CC1` [Compound 221, (R)-N-(1-(3-(difluoro(1-isopropylpiperidin-4-yl)methyl)-2-fluorophenyl)ethyl)-6-(1-isopropylpiperidin-4-yl)-7-methoxypyrido[2,3-d] pyrimidin-4-amine], the IC50 in test [1] (setting [4]) was at most 1000 nM; in test [1] (setting [5]) it was under 500 nM; in test [2] (setting [6]), under 100 nM; in test [2] (setting [7]), under 50 nM; in test [3] (setting [8]), at most 1000 nM; in test [3] (setting [9]) it was under 500 nM.
With `C[C@@H](Nc1ncnc2nc(Cl)c(N3CCS(=O)(=O)CC3)cc12)c1cccc(C(F)(F)F)c1F` [Compound 330, (R)-4-(7-chloro-4-((1-(2-fluoro-3-(trifluoromethyl)phenyl)ethyl)amino)pyrido[2,3-d]pyrimidin-6-yl)thiomorpholine 1,1-dioxide], the IC50 in test [1] (setting [4]) was at most 1000 nM; in test [1] (setting [5]) it was under 500 nM; in test [2] (setting [6]) it was under 100 nM; in test [2] (setting [7]) it was under 50 nM; in test [3] (setting [8]), at most 1000 nM; in test [3] (setting [9]), under 500 nM.
For `COc1nc2nc(C)nc(N[C@H](C)c3cccc(C(F)F)c3F)c2cc1C1(C#N)CCN(C(C)C)CC1` [Compound 117, (R)-4-(4-((1-(3-(difluoromethyl)-2-fluorophenyl)ethyl)amino)-7-methoxy-2-methylpyrido[2,3-d]pyrimidin-6-yl)-1-isopropylpiperidine-4-carbonitrile], the IC50 in test [1] (setting [4]) is at most 1000 nM; in test [1] (setting [5]), under 500 nM; in test [2] (setting [6]), under 100 nM; in test [2] (setting [7]), under 50 nM; in test [3] (setting [8]) it was at most 1000 nM.
For the compound `CC(C)N1CCC(C(F)(F)c2cccc([C@@H](C)Nc3ncnc4nc(Cl)c(N5CCN(C(C)C)CC5)cc34)c2)CC1` [Compound 291, (R)-7-chloro-N-(1-(3-(difluoro(1-isopropylpiperidin-4-yl)methyl)phenyl)ethyl)-6-(4-isopropylpiperazin-1-yl)pyrido[2,3-d] pyrimidin-4-amine], the IC50 in test [1] (setting [4]) was at most 1000 nM; in test [1] (setting [5]) it was under 500 nM; in test [2] (setting [6]), under 100 nM; in test [2] (setting [7]), under 50 nM; in test [3] (setting [8]) it was at most 1000 nM; in test [3] (setting [9]) it was under 500 nM.
As for `COc1nc2nc(OC[C@@H]3CCCN3C)nc(N[C@H](C)c3cccc(C(F)F)c3F)c2cc1C1(C#N)CC1` [Compound 326, 1-(4-(((R)-1-(3-(difluoromethyl)-2-fluorophenyl)ethyl)amino)-7-methoxy-2-(((S)-1-methylpyrrolidin-2-yl)methoxy)pyrido[2,3-d]pyrimidin-6-yl)cyclopropane-1-carbonitrile], the IC50 in test [1] (setting [4]) was at most 1000 nM; in test [1] (setting [5]) it was under 500 nM; in test [2] (setting [6]), under 100 nM; in test [2] (setting [7]), under 50 nM; in test [3] (setting [8]) it was at most 1000 nM.
For the compound `Cc1nc(N[C@H](C)c2cccc(C(F)F)c2F)c2cc(C3(C#N)CC3)c(N3CCOCC3)nc2n1` [Compound 396, (R)-1-(4-((1-(3-(difluoromethyl)-2-fluorophenyl)ethyl)amino)-2-methyl-7-morpholinopyrido[2,3-d]pyrimidin-6-yl)cyclopropane-1-carbonitrile], the IC50 in test [1] (setting [4]) is at most 1000 nM; in test [2] (setting [6]), under 100 nM; in test [2] (setting [7]) it was under 50 nM; in test [3] (setting [8]) it was at most 1000 nM; in test [3] (setting [9]), under 500 nM.
With `COc1nc2nc(C)nc(N[C@H](C)c3cccc(C(F)(F)C(C)(C)O)c3F)c2cc1N1CCN(C)CC1` [Compound 323, (R)-1,1-difluoro-1-(2-fluoro-3-(1-((7-methoxy-2-methyl-6-(4-methylpiperazin-1-yl)pyrido[2,3-d]pyrimidin-4-yl)amino)ethyl)phenyl)-2-methylpropan-2-ol], the IC50 in test [1] (setting [4]) is at most 1000 nM; in test [1] (setting [5]), under 500 nM; in test [2] (setting [6]), under 100 nM; in test [2] (setting [7]), under 50 nM; in test [3] (setting [8]), at most 1000 nM.
`Cc1nc(N[C@H](C)c2cccc(C(F)(F)CO)c2)c2cc(C3(C#N)CC3)c(Cl)nc2n1` [Compound 194, (R)-1-(7-chloro-4-((1-(3-(1,1-difluoro-2-hydroxyethyl)phenyl)ethyl)amino)-2-methylpyrido[2,3-d]pyrimidin-6-yl)cyclopropane-1-carbonitrile]: the IC50 was at most 1000 nM in test [1] (setting [4]); under 100 nM in test [2] (setting [6]); under 50 nM in test [2] (setting [7]); at most 1000 nM in test [3] (setting [8]); under 500 nM in test [3] (setting [9]).
In the case of `COc1nc2nc(C)nc(N[C@H](C)c3cccc(C(F)(F)CCC4CN(C(C)C)C4)c3F)c2cc1C1CCS(=O)(=O)CC1` [Compound 238, (R)-4-(4-((1-(3-(1,1-difluoro-3-(1-isopropylazetidin-3-yl)propyl)-2-fluorophenyl)ethyl)amino)-7-methoxy-2-methylpyrido[2,3-d]pyrimidin-6-yl)tetrahydro-2H-thiopyran 1,1-dioxide], the IC50 is at most 1000 nM in test [1] (setting [4]); under 500 nM in test [1] (setting [5]); under 100 nM in test [2] (setting [6]); under 50 nM in test [2] (setting [7]); at most 1000 nM in test [3] (setting [8]); under 500 nM in test [3] (setting [9]).
For `COc1nc2nc(C)nc(N[C@H](C)c3cccc(C(F)(F)CCC4CN(C(C)C)C4)c3F)c2cc1C1(C#N)CC1` [Compound 176, (R)-1-(4-((1-(3-(1,1-difluoro-3-(1-isopropylazetidin-3-yl)propyl)-2-fluorophenyl)ethyl)amino)-7-methoxy-2-methylpyrido[2,3-d]pyrimidin-6-yl)cyclopropane-1-carbonitrile], the IC50 in test [1] (setting [4]) is at most 1000 nM; in test [1] (setting [5]), under 500 nM; in test [2] (setting [6]), under 100 nM; in test [2] (setting [7]), under 50 nM; in test [3] (setting [8]), at most 1000 nM; in test [3] (setting [9]), under 500 nM.
Take `COc1nc2ncnc(N[C@H](C)c3cccc(C(F)(F)C4CCN(C(C)C)CC4)c3F)c2cc1N1CCN(C(C)C)CC1` [Compound 263, (R)—N-(1-(3-(difluoro(1-isopropylpiperidin-4-yl)methyl)-2-fluorophenyl)ethyl)-6-(4-isopropylpiperazin-1-yl)-7-methoxypyrido[2,3-d]pyrimidin-4-amine]: the IC50 in test [1] (setting [4]) was at most 1000 nM; in test [1] (setting [5]), under 500 nM; in test [2] (setting [6]), under 100 nM; in test [2] (setting [7]), under 50 nM; in test [3] (setting [8]), at most 1000 nM; in test [3] (setting [9]), under 500 nM.
`COCCOc1nc2nc(C)nc(N[C@H](C)c3cccc(C(F)F)c3F)c2cc1C1(C#N)CC1` [Compound 151, (R)-1-(4-((1-(3-(difluoromethyl)-2-fluorophenyl)ethyl)amino)-7-(2-methoxyethoxy)-2-methylpyrido[2,3-d]pyrimidin-6-yl)cyclopropane-1-carbonitrile]: the IC50 in test [1] (setting [4]) was at most 1000 nM; in test [1] (setting [5]) it was under 500 nM; in test [2] (setting [7]), under 50 nM; in test [3] (setting [8]), at most 1000 nM.
As for `CCN1CCN(c2cc3c(N[C@H](C)c4cccc(C(F)F)c4F)nc(C)nc3nc2OC2CN(C)C2)CC1` [Compound 254, (R)-N-(1-(3-(difluoromethyl)-2-fluorophenyl)ethyl)-6-(4-ethylpiperazin-1-yl)-2-methyl-7-((1-methylazetidin-3-yl)oxy)pyrido[2,3-d]pyrimidin-4-amine], the IC50 in test [1] (setting [4]) was 1000 to 10000 nM; in test [2] (setting [6]), under 100 nM; in test [2] (setting [7]), under 50 nM; in test [3] (setting [8]), 1000 to 10000 nM.
On to `CCN1CCN(c2cc3c(N[C@H](C)c4cccc(C(F)(F)F)c4C)nc(C)nc3nc2OC)CC1` [Compound 350, (R)-6-(4-ethylpiperazin-1-yl)-7-methoxy-2-methyl-N-(1-(2-methyl-3-(trifluoromethyl)phenyl)ethyl)pyrido [2,3-d]pyrimidin-4-amine], for which the IC50 in test [1] (setting [4]) was at most 1000 nM; in test [1] (setting [5]) it was under 500 nM; in test [2] (setting [6]) it was under 100 nM; in test [2] (setting [7]), under 50 nM; in test [3] (setting [8]) it was at most 1000 nM; in test [3] (setting [9]), under 500 nM.
